Test results from ChEMBL document CHEMBL4033678, “A fragment-based approach leading to the discovery of a novel binding site and the selective CK2 inhibitor CAM4066” (Bioorg Med Chem, 2017).
Active and inactive are the calls of the source. The calls are words filed in the database; no cut-off is given here.

What follows are compounds tested against Casein kinase II subunit alpha (Homo sapiens) (UniProt P68400).
Sequence of Casein kinase II subunit alpha (Homo sapiens) (P68400 whole entry, looked up): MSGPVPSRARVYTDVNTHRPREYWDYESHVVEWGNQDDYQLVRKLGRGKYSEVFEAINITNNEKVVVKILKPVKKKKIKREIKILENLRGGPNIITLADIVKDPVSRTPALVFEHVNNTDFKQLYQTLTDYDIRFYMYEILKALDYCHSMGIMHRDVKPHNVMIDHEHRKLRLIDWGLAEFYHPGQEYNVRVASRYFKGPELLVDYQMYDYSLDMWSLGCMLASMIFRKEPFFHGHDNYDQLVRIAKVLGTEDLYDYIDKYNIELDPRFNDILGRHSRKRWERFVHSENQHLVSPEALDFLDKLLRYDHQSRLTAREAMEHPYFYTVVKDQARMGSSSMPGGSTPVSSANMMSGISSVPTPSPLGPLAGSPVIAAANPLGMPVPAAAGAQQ

| ΔTm | deltaTm | Structure (SMILES) |
| --- | --- | --- |
| 3.2 °C | – | O=C(O)c1ccc(O)cc1O |
| 3.8 °C | – | NNc1ccc(C(=O)O)cc1 |
| 4.1 °C | – | O=C(O)c1cc2cc(F)ccc2[nH]1 |
| 4.1 °C | – | Cc1ccc(O)c(C(=O)O)c1 |
| 3.1 °C | – | O=C(O)CCc1ccc(O)cc1 |
| – | inactive | O=C(O)c1ccc2ccccc2n1 |
| 3 °C | – | O=C(O)c1ccc2cc[nH]c2c1 |
| – | inactive | O=C(O)c1cc(=O)c2ccccc2o1 |
| – | inactive | NC(=O)c1ccc(O)cc1 |
| 0.5 °C | – | Cc1cc(C(=O)O)ccc1N |
| 0 °C | – | Nc1cccc(C(=O)O)c1 |
| 2.4 °C | – | O=C(O)c1ccc(O)c(O)c1 |
| – | inactive | O=C(O)c1cc2cc(O)ccc2[nH]1 |

Continued, compound first:

| Structure (SMILES) | ΔTm | deltaTm |
| --- | --- | --- |
| CCCCOC(=O)N1CCC(N)CC1 | 0.3 °C | – |
| O=C(O)c1ccc[nH]c1=O | -1.8 °C | – |
| O=c1cc(O)c2ccccc2o1 | 3.8 °C | – |
| O=C(O)Cc1cc(=O)oc2ccccc12 | – | inactive |
| OC1CCC(N2CCNCC2)CC1 (stereo not drawn) | 0.8 °C | – |
| O=C(O)C(=O)Cc1ccccc1 | -0.6 °C | – |
| Nc1cc(Br)cnc1N | – | inactive |
| O=C(O)c1cccc(C(=O)O)n1 | -0.5 °C | – |
| O=C(O)Cc1ccc(Cl)c(Cl)c1 | 0.7 °C | – |
| COc1cc(CC(=O)O)ccc1O | – | inactive |
